# Like-named read-outs stand apart in the source and are kept apart here.
# What was measured:
# [1] = system: P388 cells; assay: Cytotoxic activity in vitro, cell counting after 48 hours exposure; type: cell-based; settings: Mus musculus
# Protocol: (§1) Compound IB has been tested in comparison with daunorubicin (DNR) against HeLa and P388 cells in vitro (Table 1).
# (§2) Cytotoxic activity of IB in comparison
# ^++ CYTOTOXICITY EVALUATED AFTER 48 HOURS EXPOSURE TO THE DRUGS BY
# CELL COUNTING TECHNIQUE.
# [2] = system: disseminated Gross leukemia; assay: In vivo effect against disseminated Gross leukemia in C3H mice; settings: for TOXIC DEATHS: evaluated on the basis of autopsy findings; for T/C %: median survival time treated/controls × 100
# Protocol: (§3) EFFECT AGAINST GROSS LEUKEMIA^(A)
# (§4) ^(A) EXPERIMENTS WERE PERFORMED IN C3H MICE, INOCULATED WITH 2 .times
# (§5) 10^6 LEUKEMIA CELLS I.V.
# (§6) ^(B) TREATMENT I.V. ON DAY 1 AFTER TUMOR INOCULUM.
# (§7) ^(C) MEDIAN SURVIVAL TIME OF TREATED MICE/MEDIAN SURVIVAL TIME OF
# (§8) ^(D) EVALUATED ON THE BASIS OF AUTOPSY FINDINGS.
# [3] = as above; settings: mouse, in vivo; iv, mice with disseminated Gross leukemia; read-out: maxima tolerated dose (MxTD)
# Protocol: as §3, §4, §5, §6, §7, §8
# [4] = system: HeLa cells; assay: Cytotoxic activity in vitro, colony inhibition test after 24 hours exposure; type: cell-based; settings: Homo sapiens
# Protocol: as §1, §2
# ^+ COLONY INHIBITION TEST AFTER 24 HOURS EXPOSURE TO THE DRUGS.
compound,measurement,setting,value
"COc1cccc2c1C(=O)c1c(O)c3c(c(O)c1C2=O)C[C@@](O)(C(=O)CO)C[C@@H]3O[C@H]1C[C@@H](CN)[C@@H](O)[C@H](C)O1 [IB, 3'-desamino-3'-aminomethyl-3',4'-epi-doxorubicin]",IC50,"[1]; P388, cell counting after 48 hours exposure, read-out: ID50 (the source's name)",10 ng/mL
same,TOXIC DEATHS,[2]; 19 mg/kg i.v. on day 1,0/10
same,T/C %,[2]; 19 mg/kg i.v. on day 1 after tumor inoculum,167%
same,TOXIC DEATHS,[2]; 24.7 mg/kg i.v. on day 1,0/10
same,T/C %,[2]; 24.7 mg/kg i.v. on day 1 after tumor inoculum,183%
same,TOXIC DEATHS,[2]; 32.11 mg/kg i.v. on day 1,1/10
same,T/C %,[2]; 32.11 mg/kg i.v. on day 1 after tumor inoculum,200%
same,potency in vivo compared with DNR,[2]; administered iv,less potent than DNR
same,activity in vivo compared with DNR,"[2]; iv, at the maxima tolerated dose (32.11 mg/Kg; DNR MxTD=15 mg/Kg)",more active than DNR
same,MTD,[3],32.1 mg/kg
same,IC50,"[4]; colony inhibition test after 24 hours exposure, read-out: ID50 (the source's name)",6.4 ng/mL
"COc1cccc2c1C(=O)c1c(O)c3c(c(O)c1C2=O)C[C@@](O)(C(C)=O)C[C@@H]3O[C@H]1C[C@H](N)[C@H](O)[C@H](C)O1 [DNR, daunorubicin, reference compound]",IC50,"[1]; P388, 48 h, read-out: ID50",8.4 ng/mL
same,TOXIC DEATHS,[2]; 10 mg/kg i.v. on day 1,0/10
same,T/C %,[2]; 10 mg/kg i.v. on day 1 after tumor inoculum,150%
same,TOXIC DEATHS,[2]; 15 mg/kg i.v. on day 1,0/10
same,T/C %,[2]; 15 mg/kg i.v. on day 1 after tumor inoculum,183%
same,TOXIC DEATHS,[2]; 22.5 mg/kg i.v. on day 1,2/10
same,T/C %,[2]; 22.5 mg/kg i.v. on day 1 after tumor inoculum,217%
same,MTD,[3],15 mg/kg
same,IC50,"[4]; 24 h, read-out: ID50",10.5 ng/mL
